Patent US8524773B2, “Utilization of dialkylfumarates” (Biogen Idec International GmbH, priority 1998, dated 2013)
Where a name gives a salt, the structure may show the parent alone.

Assays:
haemagglutination [1] = assay: in vitro haemagglutination; settings: compared with cyclosporine
haemagglutination [2] = assay: in vivo haemagglutination; settings: compared with cyclosporine
Ehrlich ascites tumour = settings: mice; cited from earlier work
[3] = test system: human mononuclear cells of periphere blood (PBMC cells); assay: endotoxin-stimulated TNF-α secretion in PBMC cells; assay type: cell-based
isolated monocytes = assay: endotoxin-stimulated TNF-α secretion in isolated monocytes; assay type: cell-based, human

| Compound | effect on in vitro haemagglutination (haemagglutination [1]) | effect on in vivo haemagglutination (haemagglutination [2]) | growth of the Ehrlich ascites tumour (Ehrlich ascites tumour) | endotoxin-stimulated TNF-α secretion [3] | endotoxin-stimulated TNF-α secretion (isolated monocytes) |
| --- | --- | --- | --- | --- | --- |
| O=C(O)/C=C/C(=O)O [fumaric acid] | comparable to that of cyclosporine | comparable to that of cyclosporine | inhibits the growth |  |  |
| COC(=O)/C=C/C(=O)O [methyl hydrogen fumarate] |  |  |  | initially increases | initially increases |
